Source: patent US9775844B2, “Heterocyclic compounds and uses thereof” (Infinity Pharmaceuticals, Inc., priority 2014, dated 2017)
pIC50: −log10 of the molar value.

What was measured:
[1] = biological target: PI3K α (Homo sapiens (Human), UniProt P42336); assay: PI3-Kinase Promega ADP-Glo Max assay; type: biochemical
[2] = biological target: PI3K β (Homo sapiens (Human), UniProt P42338); assay: PI3-Kinase Promega ADP-Glo Max assay; type: biochemical
Protocol: (§1) Promega ADP-Glo Max assay kit (Cat. No. V7002) was utilized to determine IC50 values for α, β, δ and γ isoforms of human Class I PI3 kinases (Millipore). […] Reactions were incubated at room temperature for 2 hours followed by addition of 25 uL of stop solution. After a 40-minute incubation at room temperature, 50 uL of Promega detection mix was added followed by incubation for 1 hour at room temperature. Plates were then read on Envision plate reader in lunimescence mode. Data was converted to % inhibition using the following equation below:
(§2) [formula] where S is the sample luminescence, Pos is a positive control without added PI3K, Neg is the negative control without added compound. Data was then plotted as % inhibition vs compound concentration.

[3] = biological target: PI3K γ (Homo sapiens (Human), UniProt P48736); assay: PI3-Kinase Promega ADP-Glo Max assay; type: biochemical
Protocol: as §1, §2

[4] = biological target: PI3K δ (Homo sapiens (Human), UniProt O00329); assay: PI3-Kinase Promega ADP-Glo Max assay; type: biochemical
Sequence of PI3K δ (O00329 whole entry): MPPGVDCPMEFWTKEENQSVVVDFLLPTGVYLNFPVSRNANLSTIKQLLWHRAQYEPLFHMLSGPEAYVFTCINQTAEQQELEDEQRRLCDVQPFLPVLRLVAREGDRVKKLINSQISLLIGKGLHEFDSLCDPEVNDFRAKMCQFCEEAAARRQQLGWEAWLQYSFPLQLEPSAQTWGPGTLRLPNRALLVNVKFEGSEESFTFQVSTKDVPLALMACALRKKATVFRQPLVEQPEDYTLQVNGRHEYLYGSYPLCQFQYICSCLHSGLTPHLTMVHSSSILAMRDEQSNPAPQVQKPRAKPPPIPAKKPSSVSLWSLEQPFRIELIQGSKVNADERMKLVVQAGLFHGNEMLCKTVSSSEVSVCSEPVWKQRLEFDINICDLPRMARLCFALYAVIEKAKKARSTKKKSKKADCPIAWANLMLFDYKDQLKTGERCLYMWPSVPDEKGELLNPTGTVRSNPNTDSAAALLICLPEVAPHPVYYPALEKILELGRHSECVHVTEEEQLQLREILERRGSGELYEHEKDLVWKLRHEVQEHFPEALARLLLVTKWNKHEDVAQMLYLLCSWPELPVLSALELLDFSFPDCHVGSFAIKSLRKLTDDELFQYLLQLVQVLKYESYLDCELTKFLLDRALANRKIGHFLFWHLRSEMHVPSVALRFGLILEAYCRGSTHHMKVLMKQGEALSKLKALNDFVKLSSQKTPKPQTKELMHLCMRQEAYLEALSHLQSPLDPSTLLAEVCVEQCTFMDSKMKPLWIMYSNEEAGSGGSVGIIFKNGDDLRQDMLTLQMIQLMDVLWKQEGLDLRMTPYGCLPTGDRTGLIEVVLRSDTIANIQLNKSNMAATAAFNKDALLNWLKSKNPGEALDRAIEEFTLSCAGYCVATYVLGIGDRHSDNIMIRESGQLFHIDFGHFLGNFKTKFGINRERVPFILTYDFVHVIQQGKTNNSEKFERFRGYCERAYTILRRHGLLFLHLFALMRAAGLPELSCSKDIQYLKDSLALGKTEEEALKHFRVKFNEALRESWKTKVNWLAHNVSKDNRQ
Sequence of PI3K δ (P27986 whole entry partner): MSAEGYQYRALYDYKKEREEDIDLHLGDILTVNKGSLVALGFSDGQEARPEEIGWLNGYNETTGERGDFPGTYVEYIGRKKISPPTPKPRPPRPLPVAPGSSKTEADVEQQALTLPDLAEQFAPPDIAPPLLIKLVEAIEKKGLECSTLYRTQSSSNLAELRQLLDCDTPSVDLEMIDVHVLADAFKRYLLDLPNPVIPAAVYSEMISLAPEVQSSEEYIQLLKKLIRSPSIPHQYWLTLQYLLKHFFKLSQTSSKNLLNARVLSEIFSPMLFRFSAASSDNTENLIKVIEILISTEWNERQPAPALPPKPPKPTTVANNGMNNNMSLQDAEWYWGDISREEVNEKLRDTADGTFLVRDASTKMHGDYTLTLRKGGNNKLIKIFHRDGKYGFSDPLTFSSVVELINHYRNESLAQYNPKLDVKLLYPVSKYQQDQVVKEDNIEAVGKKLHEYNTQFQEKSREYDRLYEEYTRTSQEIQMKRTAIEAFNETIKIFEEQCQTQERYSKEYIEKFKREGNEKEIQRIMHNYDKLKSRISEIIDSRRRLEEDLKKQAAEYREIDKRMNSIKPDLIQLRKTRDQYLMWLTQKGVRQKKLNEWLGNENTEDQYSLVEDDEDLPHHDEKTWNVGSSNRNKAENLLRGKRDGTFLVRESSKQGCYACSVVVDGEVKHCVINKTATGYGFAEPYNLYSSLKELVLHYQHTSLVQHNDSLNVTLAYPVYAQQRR
Protocol: as §1, §2

[5] = biological target: PI3K-γ in RAW264.7 macrophages (Mus musculus (Mouse), UniProt Q9JHG7); assay: Raw264.7 p110 γ assay (PI3K-γ selective cellular assay, C5a-stimulated phospho-AKT); type: cell-based; conditions: for pIC50: phospho-AKT, read-out: Raw264.7 p110 γ assay IC50
Sequence of PI3K-γ in RAW264.7 macrophages (Q9JHG7 whole entry): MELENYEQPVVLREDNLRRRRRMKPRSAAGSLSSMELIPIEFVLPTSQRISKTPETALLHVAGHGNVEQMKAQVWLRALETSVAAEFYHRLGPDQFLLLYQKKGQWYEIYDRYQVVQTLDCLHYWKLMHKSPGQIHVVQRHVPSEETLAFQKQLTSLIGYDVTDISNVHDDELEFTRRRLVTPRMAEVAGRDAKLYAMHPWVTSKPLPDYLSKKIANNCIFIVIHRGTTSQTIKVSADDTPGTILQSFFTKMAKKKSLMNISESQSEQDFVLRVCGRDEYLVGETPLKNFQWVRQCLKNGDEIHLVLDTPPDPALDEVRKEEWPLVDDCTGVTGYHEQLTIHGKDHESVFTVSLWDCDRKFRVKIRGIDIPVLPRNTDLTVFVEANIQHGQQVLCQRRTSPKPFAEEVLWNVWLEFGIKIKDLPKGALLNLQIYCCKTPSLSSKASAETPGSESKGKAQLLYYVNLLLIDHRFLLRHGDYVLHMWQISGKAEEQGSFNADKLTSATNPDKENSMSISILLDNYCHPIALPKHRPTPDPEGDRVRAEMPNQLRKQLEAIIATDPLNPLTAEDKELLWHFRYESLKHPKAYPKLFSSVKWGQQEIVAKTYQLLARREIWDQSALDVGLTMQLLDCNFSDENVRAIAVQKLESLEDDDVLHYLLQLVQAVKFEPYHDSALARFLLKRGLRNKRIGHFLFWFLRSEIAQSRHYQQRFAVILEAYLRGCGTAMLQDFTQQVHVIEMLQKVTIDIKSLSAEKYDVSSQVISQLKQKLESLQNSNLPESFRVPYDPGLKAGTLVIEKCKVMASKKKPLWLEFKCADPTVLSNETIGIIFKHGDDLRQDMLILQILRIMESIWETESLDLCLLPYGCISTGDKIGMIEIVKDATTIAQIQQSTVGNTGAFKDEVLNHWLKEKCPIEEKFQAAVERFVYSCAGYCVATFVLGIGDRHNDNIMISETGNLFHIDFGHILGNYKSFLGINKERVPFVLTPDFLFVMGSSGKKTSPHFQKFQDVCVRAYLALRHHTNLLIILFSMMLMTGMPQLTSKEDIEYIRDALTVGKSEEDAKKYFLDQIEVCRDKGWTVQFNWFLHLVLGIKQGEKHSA
Description: Briefly, serum-starved RAW264.7 cells are stimulated with a known GPCR agonist C5a. […] Cells can be treated with test compounds prior to, simultaneously with, or subsequent to the stimulation by C5a. RAW 264.7 cells respond to the complement component fragment C5a through activation of the C5a receptor, and the C5a receptor activates macrophages and induces cell migration.

[6] = biological target: PI3K-δ in RAJI cells (Homo sapiens (Human), UniProt O00329); assay: RAJI p110 δ assay (PI3K-δ selective cellular assay, phospho-AKT); type: cell-based; conditions: phospho-AKT; read-out: RAJI p110 δ assay IC50
Sequence of PI3K-δ in RAJI cells (O00329 whole entry): as the sequence (O00329 whole entry) above
Sequence of PI3K-δ in RAJI cells (P27986 whole entry partner): as the sequence (P27986 whole entry partner) above

Sequence of PI3K β (P42338 whole entry): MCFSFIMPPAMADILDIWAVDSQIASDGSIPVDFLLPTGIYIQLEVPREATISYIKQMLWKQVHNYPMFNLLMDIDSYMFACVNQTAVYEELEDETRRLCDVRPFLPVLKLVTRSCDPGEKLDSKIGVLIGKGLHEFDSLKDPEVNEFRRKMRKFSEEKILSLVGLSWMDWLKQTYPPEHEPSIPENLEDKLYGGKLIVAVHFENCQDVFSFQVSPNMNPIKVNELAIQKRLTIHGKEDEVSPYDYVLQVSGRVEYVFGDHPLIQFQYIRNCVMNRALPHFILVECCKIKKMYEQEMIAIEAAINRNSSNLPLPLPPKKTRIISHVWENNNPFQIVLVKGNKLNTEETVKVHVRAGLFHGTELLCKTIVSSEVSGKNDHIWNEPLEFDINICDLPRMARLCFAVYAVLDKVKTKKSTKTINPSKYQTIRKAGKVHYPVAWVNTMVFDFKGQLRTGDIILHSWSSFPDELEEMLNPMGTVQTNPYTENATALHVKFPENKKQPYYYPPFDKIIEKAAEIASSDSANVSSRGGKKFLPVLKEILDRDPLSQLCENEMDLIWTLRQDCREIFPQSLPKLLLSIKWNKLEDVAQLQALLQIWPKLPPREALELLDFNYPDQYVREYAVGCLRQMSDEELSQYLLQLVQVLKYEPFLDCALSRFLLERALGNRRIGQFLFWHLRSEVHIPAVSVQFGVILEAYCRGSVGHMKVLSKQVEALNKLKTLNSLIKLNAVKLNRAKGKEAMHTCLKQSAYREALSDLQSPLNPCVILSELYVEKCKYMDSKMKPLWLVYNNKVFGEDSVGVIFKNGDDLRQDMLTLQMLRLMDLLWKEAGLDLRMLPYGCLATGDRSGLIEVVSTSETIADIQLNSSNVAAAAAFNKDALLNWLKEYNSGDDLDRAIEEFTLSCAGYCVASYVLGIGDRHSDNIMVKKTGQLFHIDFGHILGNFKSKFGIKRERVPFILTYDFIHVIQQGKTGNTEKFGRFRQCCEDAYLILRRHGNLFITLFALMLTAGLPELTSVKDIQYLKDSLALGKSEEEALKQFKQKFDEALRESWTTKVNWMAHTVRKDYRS
Sequence of PI3K β (P27986 whole entry partner): as the sequence (P27986 whole entry partner) above

Compound | pIC50 [1] | pIC50 [2] | pIC50 [3] | PI3K δ/PI3K γ IC50 (selectivity) [3] | pIC50 [4] | RAJIδ/Raw264.7 γ IC50 (selectivity) [5] | pIC50 [5] | pIC50 [6]
CC#Cc1cccc2nc([C@H](C)NC(=O)c3c(N)nn4cccnc34)n(-c3ccccc3)c(=O)c12 [Compound 1] | 5.00 to 5.30 | 5.30 to 6.00 | 7.00 to 9.00 | X (X = 10 to <50) | 6.00 to 6.30 | X (X = 10 to <50) | 7.30 to 9.00 | 7.00 to 9.00
C[C@H](NC(=O)c1c(N)nn2cccnc12)c1nc2cccc(C#Cc3cnn(C)c3)c2c(=O)n1-c1ccccc1 [Compound 21] | 5.00 to 5.30 | 5.00 to 5.30 | – | – | 5.00 to 5.30 | – | – | 6.30 to 7.00
C[C@H](NC(=O)c1c(N)nn2cccnc12)c1cc2cccc(C#Cc3cnn(C)c3)c2c(=O)n1C1CC1 [Compound 25] | 5.30 to 6.00 | 5.30 to 6.00 | – | – | 5.00 to 5.30 | – | 7.30 to 9.00 | 6.30 to 7.00
C[C@H](NC(=O)c1c(N)nn2cccnc12)c1cc2cccc(C#Cc3ccc(=O)[nH]c3)c2c(=O)n1-c1ccccc1 [Compound 33] | – | – | – | – | – | – | 7.30 to 9.00 | –
C[C@H](NC(=O)c1cncc2cccnc12)c1cc2cccc(C#Cc3cnn(C)c3)c2c(=O)n1-c1ccccc1 [Compound 42] | – | – | – | – | – | – | 7.30 to 9.00 | –
C[C@H](NC(=O)c1c(N)nn2cccnc12)c1cc2cccc(C#Cc3cnn(C)c3)c2c(=O)[nH]1 [Compound 44] | – | – | – | – | – | – | 7.00 to 7.30 | –
C#Cc1cccc2nc([C@H](C)NC(=O)c3nccnc3N)n(-c3ccccc3)c(=O)c12 [Compound 47] | 5.30 to 6.00 | 6.30 to 9.00 | 7.00 to 9.00 | V (V = 0.1 to 1) | 6.30 to 9.00 | – | – | –
COc1cnc(C(=O)N[C@@H](C)c2cc3cccc(C#Cc4cnn(C)c4)c3c(=O)n2-c2ccccc2)c(N)n1 [Compound 71] | 5.00 to 5.30 | 5.00 to 5.30 | < 5.30 | V (V = 0.1 to 1) | 5.00 to 5.30 | – | – | 5.00 to 6.00
C[C@H](NC(=O)c1c(N)nn2cccnc12)c1cc2cccc(C#CC3CCN(C)CC3)c2c(=O)n1-c1ccccc1 [Compound 85] | 5.00 to 5.30 | 5.00 to 5.30 | 6.00 to 6.30 | X (X = 10 to <50) | 5.00 to 5.30 | – | – | –
Cc1nnc(C#Cc2cccc3cc([C@H](C)NC(=O)c4c(N)nn5cccnc45)n(-c4ccccc4)c(=O)c23)s1 [Compound 86] | 5.00 to 5.30 | 5.30 to 6.00 | 6.30 to 7.00 | X (X = 10 to <50) | 5.30 to 6.00 | – | – | –
C[C@H](NC(=O)c1c(N)nn2cccnc12)c1cc2cccc(/C=C/c3ccccc3)c2c(=O)n1-c1ccccc1 [Compound 87] | 5.00 to 5.30 | 5.00 to 5.30 | < 5.30 | V (V = 0.1 to 1) | 5.00 to 5.30 | – | – | –
C[C@H](NC(=O)c1c(N)nn2cccnc12)c1cc2cccc(C#Cc3cnn(C)c3)c2c(=O)n1-c1cccc(F)c1 [Compound 93] | 5.00 to 5.30 | 5.00 to 5.30 | 7.00 to 9.00 | Y (Y = 50 to <850) | 5.00 to 5.30 | – | – | –
C[C@H](NC(=O)c1c(N)nn2cccnc12)c1cc2cccc(C#Cc3cnn(C)c3)c2c(=O)n1C [Compound 94] | 5.30 to 6.00 | 6.00 to 6.30 | 6.30 to 7.00 | X (X = 10 to <50) | 5.00 to 5.30 | – | – | –
Cc1cccc(-n2c([C@H](C)NC(=O)c3c(N)nn4cccnc34)cc3cccc(C#Cc4cnn(C)c4)c3c2=O)c1 [Compound 95] | 5.00 to 5.30 | 5.00 to 5.30 | 6.30 to 7.00 | X (X = 10 to <50) | 5.00 to 5.30 | – | – | –
C[C@H](NC(=O)c1c(N)nn2cccnc12)c1cc2cccc(C#Cc3cnn(C)c3)c2c(=O)n1-c1ccc(F)cc1 [Compound 96] | 5.30 to 6.00 | 5.00 to 5.30 | 7.00 to 9.00 | Y (Y = 50 to <850) | 5.00 to 5.30 | – | – | –
C[C@H](NC(=O)c1c(N)nn2cccnc12)c1cc2cccc(C#Cc3cnn(C)c3)c2c(=O)n1-c1ccc(F)c(F)c1 [Compound 97] | 5.00 to 5.30 | 5.00 to 5.30 | 6.30 to 7.00 | X (X = 10 to <50) | 5.00 to 5.30 | – | – | –
Cc1ccc(-n2c([C@H](C)NC(=O)c3c(N)nn4cccnc34)cc3cccc(C#Cc4cnn(C)c4)c3c2=O)cc1 [Compound 98] | 5.00 to 5.30 | 5.00 to 5.30 | 6.30 to 7.00 | X (X = 10 to <50) | 5.00 to 5.30 | – | – | –
C[C@H](NC(=O)c1c(N)nn2cccnc12)c1cc2cccc(C#Cc3cnn(C)c3)c2c(=O)n1C1CCCCC1 [Compound 99] | 5.00 to 5.30 | 5.00 to 5.30 | 5.30 to 6.00 | X (X = 10 to <50) | 5.00 to 5.30 | – | – | –
CNS(=O)(=O)CCn1c([C@H](C)NC(=O)c2c(N)nn3cccnc23)cc2cccc(C#Cc3cnn(C)c3)c2c1=O [Compound 100] | 5.30 to 6.00 | 5.30 to 6.00 | 7.00 to 9.00 | Y (Y = 50 to <850) | 5.00 to 5.30 | – | – | –
Cc1ccccc1-n1c([C@H](C)NC(=O)c2c(N)nn3cccnc23)cc2cccc(C#Cc3cnn(C)c3)c2c1=O [Compound 101] | 5.00 to 5.30 | 5.00 to 5.30 | 7.00 to 9.00 | Y (Y = 50 to <850) | 5.00 to 5.30 | – | – | –
Cc1ccnc2c(C(=O)N[C@@H](C)c3cc4cccc(C#Cc5cnn(C)c5)c4c(=O)n3-c3ccccc3)c(N)nn12 [Compound 102] | 5.00 to 5.30 | 5.00 to 5.30 | 6.30 to 7.00 | X (X = 10 to <50) | 5.00 to 5.30 | – | – | –
CC(C)n1c([C@H](C)NC(=O)c2c(N)nn3cccnc23)cc2cccc(C#Cc3cnn(C)c3)c2c1=O [Compound 103] | 5.00 to 5.30 | 5.00 to 5.30 | 6.00 to 6.30 | X (X = 10 to <50) | 5.00 to 5.30 | – | – | –
C[C@H](NC(=O)c1c(N)nn2cccnc12)c1cc2cccc(C#Cc3cnn(C)c3)c2c(=O)n1CCS(=O)(=O)N(C)C [Compound 104] | 5.30 to 6.00 | 5.30 to 6.00 | 7.00 to 9.00 | Y (Y = 50 to <850) | 5.00 to 5.30 | – | – | –
CC[C@H](NC(=O)c1c(N)nn2cccnc12)c1cc2cccc(C#Cc3cnn(C)c3)c2c(=O)n1-c1ccccc1 [Compound 105] | 5.30 to 6.00 | 5.00 to 5.30 | 7.00 to 9.00 | Y (Y = 50 to <850) | 5.00 to 5.30 | – | – | –
Cc1ccn2nc(N)c(C(=O)N[C@@H](C)c3cc4cccc(C#Cc5cnn(C)c5)c4c(=O)n3-c3ccccc3)c2n1 [Compound 106] | 5.00 to 5.30 | 5.30 to 6.00 | 7.00 to 9.00 | Y (Y = 50 to <850) | 5.00 to 5.30 | – | – | –
Cn1cc(C#Cc2cccc3cc(CNC(=O)c4c(N)nn5cccnc45)n(-c4ccccc4)c(=O)c23)cn1 [Compound 107] | 5.00 to 5.30 | 5.00 to 5.30 | 5.30 to 6.00 | X (X = 10 to <50) | 5.00 to 5.30 | – | – | –
Cc1cc(C)n2nc(N)c(C(=O)N[C@@H](C)c3cc4cccc(C#Cc5cnn(C)c5)c4c(=O)n3-c3ccccc3)c2n1 [Compound 108] | 5.00 to 5.30 | 5.00 to 5.30 | 6.30 to 7.00 | X (X = 10 to <50) | 5.00 to 5.30 | – | – | –
C[C@H](NC(=O)c1c(N)nn2cccnc12)c1cc2cccc(N)c2c(=O)n1-c1ccccc1 [Compound 109, (S)-2-amino-N-(1-(8-amino-1-oxo-2-phenyl-1,2-dihydroisoquinolin-3-yl)ethyl)pyrazolo[1,5-a]pyrimidine-3-carboxamide] | 5.00 to 5.30 | 5.30 to 6.00 | 7.00 to 9.00 | X (X = 10 to <50) | 5.30 to 6.00 | – | – | –
